melting point [°C]	Structure (SMILES)
196 to 197	Cc1cccc(C(=O)Nc2c[nH]nc2C(=O)NCCCO)n1
156 to 157	Cc1ccccc1Cc1ccc(=O)[nH]n1
122 to 123	CC[C@H](COC)n1cc(Br)nc(N2CCc3cc(OC)cc(Br)c32)c1=O
125 to 126	COc1ncccc1NC(=NC#N)NC(NC(=O)c1cc(F)cc(F)c1)C(C)(Cl)Cl (configuration not stated)
147 to 148	Cc1nc(N2CCN(Cc3ccccc3)C2=O)sc1C(=O)NCc1ccc(F)cc1
246	O=c1ccn([C@H]2[C@H](O)[C@H](O)CC[C@H]2O)c(=O)[nH]1 (racemic)
128 to 130	COc1ccc2nn(-c3cc(OCCCO)cc(C(C)(C)C)c3O)nc2c1
119 to 120	CCOC(=O)c1cccc(-c2ccc(Cl)c3cc(CO)sc23)c1
144 to 146	CCc1nn2c(-c3cccc(C(F)(F)F)c3)ccnc2c1C#N
90 to 91	CCCC(=O)Nc1cccc(-c2cccc(OC)c2)c1
158 to 160	CCCOCc1nc2nccnc2c(=O)[nH]1
96 to 98	O=[N+]([O-])c1c(OCc2ccccc2)ccnc1F
75 to 76	CCOCc1nc2c(NC(C)=O)nc3ccccc3c2n1CC(C)(C)NS(C)(=O)=O
96 to 98	CCOC(=O)c1c(-c2cccc(F)c2)c(Cl)n2c1CNCC2
188 to 190	CC(=O)Nc1ncc(-c2cccc3ccccc23)o1
116	CCOC(=O)c1nn(-c2ccc(Cl)cc2Cl)c(-c2ccc(Br)cc2)c1CBr
> 350	COc1cccc2[nH]c(=O)n3c(=O)[nH]nc3c12
138	COC(=O)CCCc1cc2nc(Cl)ccc2n1S(=O)(=O)c1cccc2nc(C)sc12

melting point [°C]	Structure (SMILES)
150 to 152	CCS(=O)(=O)Cc1c(Cl)c(Cl)cc2nc(OC)c(OC)nc12
142 to 144	Cc1onc(-c2ccccc2)c1-c1[nH]c2ccccc2c1CCN(C)C
136 to 138	COc1ccc(C[C@@H](CO)NC(=O)c2cccnc2Br)cc1OC
182 to 184	CC(=O)Oc1ccc(C(=O)O)c2ccccc12
148 to 150	CN1CCC(C(=O)N2CCC(c3[nH]nc4c3C(=O)c3c(NC(=O)NN5CCOCC5)cccc3-4)CC2)CC1
125	CCOC(=O)c1nc(-c2cccnc2)[nH]c1N=NN(C)C
64 to 67	CCCCCCC(=O)c1ccc2c(c1)CC(=O)O2
291 to 293	Cc1nc2cc(Cl)ccc2c(=O)n1C1CCC(=O)NC1=O (configuration not stated)
98 to 99	Cn1c(=O)on(-c2ccccc2)c1=O
123	CCOC(=O)C(=CC=C1CCc2ccccc2C1=O)N(C)C
180 to 183	CN(C)C=C1CCN(C(=O)c2ccc([N+](=O)[O-])cc2)c2ccccc2C1=O
85 to 87	COc1ccc(CON(Cc2ccccc2)S(C)(=O)=O)cc1
171 to 172	CCCCc1n[nH]c(C(=O)OC)c1Cc1ccc(-c2ccccc2-c2nc(=O)s[nH]2)cc1
74 to 86	COc1ccc2cc([C@H](C)C(=O)OCCS(=O)CCO)ccc2c1 (some centres not stated)
295 to 298	COc1cccc2cc3c(c(-c4ccc5c(c4)OCO5)c12)CNC3=O
182 to 183	COc1cc2c(cc1OC)-c1cc(N(c3c(C)cc(C)cc3C)C(C)C)nc(=O)n1CC2
85 to 86	COc1cccc(COc2cc3c(cc2OC)C(=O)N(Cc2cccc(OC)c2)CC3)c1

The remaining lines, values behind:

Structure (SMILES)	melting point [°C]
O=C1CCSc2ncccc21	66 to 68
Nc1ccc(S(=O)(=O)n2cc(CC3CCNCC3)c3cc(F)ccc32)cc1	162 to 164
CCCc1nncn1-c1ccc(O)cc1	176
COC(=O)c1ccccc1-c1ccc(Cc2nc(-c3ccccc3)nc3ccccc23)cc1	120 to 121
O=C(NN=Cc1cccc(C(F)(F)F)c1Cl)c1ccc(O)cc1	262
C[C@H](CN(C(=O)C1(C)C2CCC1CC2)c1ccccn1)N1CCN(c2cccc3[nH]ccc23)CC1 (some centres not stated)	236 to 238
CNC(=O)c1ccc(C2C(C(=O)c3ccc(C)cc3)=C(O)C(=O)N2c2ncc(S(=O)(=O)c3ccc([N+](=O)[O-])cc3)s2)cc1 (configuration not stated)	195 to 197
FC(F)(F)Sc1ccc(C=Cc2nc(COc3ccc(CCCCn4ccnn4)cc3)co2)cc1	144 to 145
CC(C)(C)c1cc(SC(Sc2cc(C(C)(C)C)c(O)c(C(C)(C)C)c2)c2ccccc2)cc(C(C)(C)C)c1O	122 to 124
OC1(c2ccccc2Cc2cc(F)ccc2F)CCN(Cc2ccccc2)CC1	143 to 146
CN1Cc2c(C(=O)NN)ncn2-c2ccc(F)cc2C1=O	288 to 290
CC(=Cc1ccc2[nH]ccc2c1)C(=O)O	207 to 209
Cc1ccc(C(=O)O)c(Sc2nc(C)c(CC(=O)O)s2)n1	223 to 225
CN1c2ccccc2[C@H]2Cc3ccccc3[C@H]21 (relative stereo)	76 to 77
Cc1cc(C(C)(CC(=O)O)c2ccc(O)c(C)c2)ccc1O	130
Cc1cc(-c2nnc3c4ccccc4c(OCc4ncn(C(C)C)n4)nn23)no1	179 to 181
O=C(CCCCCNC(=O)Cc1ccc(-c2ccccc2)cc1)NO	226 to 227
Cc1cc(Nc2cc(C(C)(C)C)c(O)c(C(C)(C)C)c2)n2nccc2n1	251 to 253
CN(C)C=Cc1cc(Cl)c(Cl)cc1[N+](=O)[O-]	171 to 174
CCCCC1(c2ccc(-c3ccccc3)cc2)CC(O)=C(SCCc2ccccc2)C(=O)O1 (configuration not stated)	100 to 104
COC(=O)c1ccc2[nH]cc(Cc3ccc(OCc4ccc5ccccc5n4)cc3)c2c1	179 to 180

Structure (SMILES)	melting point [°C]
O=C(c1ccc([N+](=O)[O-])cc1)N1CCN(c2ccncc2)CC1	158 to 160
N=C(NO)c1ccc(Cl)nc1	185 to 186
CCCCCc1c(C(=O)NN2CC=CCC2)nn(-c2ccc(Cl)cc2Cl)c1-c1ccc(Cl)cc1	150
Cn1nc(-c2cc(O)c(Cl)cc2F)c(Cl)c1C(F)(F)F	123 to 126
Fc1ccc(-c2[nH]cc(CCCN3CCCCC3)c2-c2ccncc2)cc1	195 to 197
COc1ccc(N2CCN(c3c(C)c(C)c4c(c3C)C(c3cccc5ccccc35)C(C)(C)O4)CC2)cc1 (configuration not stated)	165 to 166
Cc1c(Cl)nnc(Cl)c1Cl	67.5 to 70
Cc1cc(OCc2c(-c3c(Cl)cccc3Cl)noc2C(C)C)cnc1Oc1ccc(C(=O)O)cc1	74 to 76
CCCCCCNC(=O)[C@@H]1CCCN1C(=O)[C@@H](N)C(C)C	105 to 106
NS(=O)(=O)c1cccc(-c2cc(-c3nc(-c4cccc(C(F)(F)F)c4)cc(C(F)(F)F)n3)ccn2)c1	244
O=C(O)C(C(=O)O)C1c2ccccc2CCc2ccccc21	183
Cn1cc(-c2cc(-c3cnc4[nH]ccc4c3)ccn2)n(-c2ccc(C(C)(C)C(N)=O)cc2)c1=O	299
CN(SC1(C)CCCC1=O)C(=O)ON=C1SC(C)(C)C(=O)N1C (configuration not stated)	119 to 121
CC(C)Nc1cccnc1N1CCN(C(=O)c2ccc(C(=O)NCCc3cccs3)cn2)CC1	131 to 134
Nc1ccc(C(=O)NO)c(O)c1	180 to 181
CC(C)(C)OC(=O)Nc1ccc(C#Cc2ccc(OC(F)(F)F)cc2)cc1[N+](=O)[O-]	129 to 131
Cn1cccc1C=CC1=CC(=O)C(C)(C)O1	98.5 to 100
CS(=O)(=O)Nc1ccc(OCC2CCN(c3cc(N)ccn3)CC2)cc1	213 to 214
CCCc1nc2c(N)nc3ccccc3c2n1CC1(O)CCSCC1	243 to 244
COc1ccc(C(=O)Nc2ccc(CCc3ccc(O)c(O)c3)cc2)c(O)c1	179 to 180
NC(=O)c1ccc2c(c1)C(=O)N1CCC[C@H]1CO2	287 to 290

Structure (SMILES)	melting point [°C]
Cc1ccc(C(=O)NCC(N)=O)cc1-n1c(C)cc(OCc2ccccc2CNC(=O)Nc2cc(C(C)(C)C)nn2-c2ccc(O)c(Cl)c2)c(Cl)c1=O	228 to 230
O=S(=O)(c1ccc(Cl)cc1)C(c1ccncc1)c1cc(F)ccc1F (configuration not stated)	126 to 127
CC(=O)NC(C(=O)NC(C(=O)NC(Cc1ccccc1)C(O)C(Cc1ccccc1)NC(=O)C(NC(=O)C(NC(C)=O)C(C)C)C(C)C)C(C)C)C(C)C (configuration not stated)	271 to 272
CC(C)(C)c1cc(NC(=O)c2ccccc2)cc(C(C)(C)C)c1O	209 to 210
Cc1cccc(-c2n[nH]cc2-c2ccc(F)c(-c3ccc(N4CCN(C)CC4)cn3)c2)n1	97
Cn1cnc(S(=O)(=O)N2CCSCC2)c1	154 to 155
CC(C)C(NC(=O)Cn1cc(Cc2ccc(C(F)(F)F)cc2)cc(NC(=O)OCc2ccccc2)c1=O)C(=O)C(F)(F)F (configuration not stated)	61 to 65
CC(=O)OC1CCC2(COS(=O)(=O)c3ccc(C)cc3)C(=CCC3C2CCC2(C)C(OC(C)=O)CCC32)C1 (configuration not stated)	135 to 137
O=C(CNS(=O)(=O)c1ccccc1)c1ccc(OCc2ccccc2)cc1	148 to 149
CSCC(=O)Nc1cc(-c2c(-c3ccc(F)c(C)c3)nc3cccnn23)ccn1	155 to 156
CCCCCCC(C)(C)c1cc(O)cc(O)c1	93 to 95
Cc1c(C)c(N2CCN(Cc3ccccc3)CC2)c(C)c2c1OC(C)(C)C2(O)c1ccc(F)nc1 (configuration not stated)	105 to 109
CCCCCCCNC(=O)Nc1ccc(-n2nc(C(F)(F)F)cc2C(F)(F)F)cc1	129 to 130
Cn1cnc(S(=O)(=O)NCCCN2CCOCC2)c1	148 to 149
Clc1ccc(C23CCN(CC2)C3)cn1	70 to 72
CC(=O)Nc1ccc([N+](=O)[O-])c(N2CCN(C(C)=O)CC2)n1	189 to 193
CC(=O)Nc1ccc(C(=O)NCCN2[C@H](C)Cc3ccsc3[C@@H]2C)cc1 (relative stereo)	161 to 162
CCCCCCCCCCCCCCCCCCOc1coc(CO)cc1=O	71 to 73
CCC(CC)N(C)Cc1ccc(NC(=O)C2=Cc3cc(-c4ccc(C)cc4)ccc3SCC2)cc1	136 to 137
CN1Cc2c(C(N)=NO)ncn2-c2ccc(F)c(Cl)c2C1=O	228 to 231

— a melting point compilation (Tetko et al.; mined from patent text by program, amines drawn as free bases though some values may be those of a salt)
